Experiment [1] relates to mutant and chimeric estrogen receptors.
The next experiment has as its target T1, wild type hERα (Homo sapiens, UniProt P03372, G400V).
T1 sequence (P03372 1-595 G400V): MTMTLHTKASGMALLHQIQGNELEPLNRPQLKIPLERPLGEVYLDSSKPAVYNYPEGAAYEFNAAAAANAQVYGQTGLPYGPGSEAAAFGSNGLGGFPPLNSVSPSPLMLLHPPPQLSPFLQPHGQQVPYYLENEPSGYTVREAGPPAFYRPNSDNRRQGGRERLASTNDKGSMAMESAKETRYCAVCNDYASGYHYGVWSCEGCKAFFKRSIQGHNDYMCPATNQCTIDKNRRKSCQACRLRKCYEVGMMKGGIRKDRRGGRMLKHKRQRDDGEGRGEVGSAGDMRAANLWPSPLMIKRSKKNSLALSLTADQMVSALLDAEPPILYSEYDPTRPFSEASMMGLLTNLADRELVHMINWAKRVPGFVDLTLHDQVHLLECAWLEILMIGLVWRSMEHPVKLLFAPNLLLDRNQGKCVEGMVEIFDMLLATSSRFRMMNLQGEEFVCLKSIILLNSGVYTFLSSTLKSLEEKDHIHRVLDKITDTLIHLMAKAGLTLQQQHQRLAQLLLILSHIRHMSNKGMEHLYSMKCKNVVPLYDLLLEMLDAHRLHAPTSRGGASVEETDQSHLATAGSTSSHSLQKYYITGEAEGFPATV
In words: Ligand-dependent luciferase reporter transactivation in transfected HepG2 cells. Background: In a reporter assay the amount or activity of a reporter protein is the signal.

Experiment [2] deals with T2, N-79 (Homo sapiens, UniProt P03372, E203W/G400V/H216G/Q214A). Conditions: CHO-S cells, 10 nM OHT. From the text:
(§1) These fragments were digested with KpnI and BamHI and then purified from agarose gels. […] To create C-129, this ER fragment was digested with XbaI and KpnI and then cloned together with the DNA fragment containing 129 amino acids of VP16 into 5.9 kb vector generated by digestion of CMV-hER with XbaI and BamHI. The same strategy was adopted to create C-79 using the DNA fragment containing 79 amino acids of VP16. Therefore, the expression of these chimeras is driven by the same CMV promoter as that of ER-3M. […] The amplified PCR product was digested with NcoI and NotI. […] This fragment and the NcoI/NotI PCR fragment were then inserted together into the 4.3 kb vector, pGL3-ATL8/PAL-LUC, which was created by digesting ATL8/PAL-LUC completely with NcoI and partially with XbaI so that the luciferase gene was replaced by N-79.
(§2) A second plasmid also containing 8 copes of pS2 PAL drives expression of the reporter gene (FIG. 11, ATL8/PAL-LUC).

A further experiment addresses ER 2 (Homo sapiens, UniProt P03372, E203W/G215R/G400V/Q214A). The conditions noted are these: ATL2/PAL-LUC, 10 nM ligand.
For experiment [3], the target named is T2, N-79. In words: Autoregulated expression system (ATL8/PAL-N-79 + ATL8/PAL-LUC) in 231 human breast cancer cells. It counts as cell-based. Also on record: expressed in transfected cells; host or cells: HepG2 (A20); 231 human breast cancer cells (A21); CHO-S (A22). The conditions noted are these: 10 nM OHT.
From the text: as §1, §2

A further experiment concerns the target ER 4.3 (Homo sapiens, UniProt P03372, E203W/G215R/G400V/H216P/N217T/Q214V).
The subject of experiment [4] is wild type ER and the ER mutants.
Method: HepG2 human hepatoma cells were maintained in a humidified 5% CO2 incubator at 37° C. in Dulbecco's Modified Eagle's Medium (DMEM; Sigma; St. Louis, Mo.) supplemented with 10 % charcoal-dextran-stripped fetal bovine serum (CD-FBS; Atlanta Biologicals, Inc; Atlanta, Ga.), 50,000 U/l of penicillin, and 50 mg/liter streptomycin (Life Technologies, Inc.). MCF-7 cells were routinely maintained in DMEM/Nutrient Mixture F-12 (DMEM/F12) supplemented with 10% heat-inactived FBS, 50,000 U/l of penicillin, and 50 mg/l streptomycin.
Briefly, cells were plated in 12-well microplates at a density of 1×10^5 cells/well. The next day, the medium was replaced, and 2–6 hours later, precipitated calcium phosphate:DNA co-crystals were added. After 12–16 hours, the cells were shocked for 3 minutes with 20% glycerol in Tris-buffered saline, pH 7.4. Fresh medium and (if any) hormones were added. For MCF-7 and 231 cells, transient transfection was carried out using the Tfx™-20 reagent (Promega; Madison, Wis.) according to the manufacturer's direction with minor changes. Briefly, 1×10^5 cells were plated in each well of 12-well microplates one day before transfection. A 1:3 ratio of DNA to lipid was used. The DMEM/F12 medium without serum was used as carrier for the DNA-lipid mixture. After 1 hour incubation with the DNA-lipid-DMEM/F12 at 37° C., the cells were transferred to fresh DMEM/F12 supplemented with 10% CD-FBS, 50,000 U/I of penicillin, 50 mg/l streptomycin and hormones. Transfection on CHO—S cells was described as above for the preparation of ERs extraction except the medium contained 10% CD-NBCS. The cells subjected to either transfection method were harvested 48 hours post-transfection. Reporter assays were performed by lysing the cells in situ with 250 μl of passive lysis buffer (Promega).
The data represent the mean±S.E. of three independent transfections.
For a further experiment, the target named is ER3M (Homo sapiens, UniProt P03372, E203W/G400V/H216G/Q214A).
Chain of ER3M (P03372 whole entry E203W/Q214A/H216G/G400V): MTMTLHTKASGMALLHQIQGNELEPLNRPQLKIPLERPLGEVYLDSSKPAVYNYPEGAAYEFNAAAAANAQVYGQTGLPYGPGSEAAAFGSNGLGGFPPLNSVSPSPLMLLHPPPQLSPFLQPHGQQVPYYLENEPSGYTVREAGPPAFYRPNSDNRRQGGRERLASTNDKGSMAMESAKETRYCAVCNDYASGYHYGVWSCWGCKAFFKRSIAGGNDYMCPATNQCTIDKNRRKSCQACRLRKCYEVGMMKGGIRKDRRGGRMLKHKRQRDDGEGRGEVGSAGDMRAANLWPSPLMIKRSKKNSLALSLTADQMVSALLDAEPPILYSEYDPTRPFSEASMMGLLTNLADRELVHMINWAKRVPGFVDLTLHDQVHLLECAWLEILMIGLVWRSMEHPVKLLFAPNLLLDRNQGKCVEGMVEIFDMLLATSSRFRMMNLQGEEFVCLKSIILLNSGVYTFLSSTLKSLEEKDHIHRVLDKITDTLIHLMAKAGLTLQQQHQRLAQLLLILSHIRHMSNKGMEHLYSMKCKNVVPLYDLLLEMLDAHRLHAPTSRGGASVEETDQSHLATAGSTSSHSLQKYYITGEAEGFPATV
Experiment [5] addresses T2, N-79. Kind of experiment: Autoregulated expression system (ATL8/PAL-N-79 + ATL8/PAL-LUC) in HepG2 cells. It counts as cell-based. Conditions: HepG2 human hepatoblastoma cells, 10 nM OHT. Also on record: expressed in transfected cells; host or cells: HepG2 (A20); 231 human breast cancer cells (A21); CHO-S (A22).
From the text: as §1, §2

The next experiment deals with ER mutant 4.3 (Homo sapiens, UniProt P03372, E203W/G215R/G400V/H216P/N217T/Q214V). The conditions noted are these: 10 μM ligand.
Chain of ER mutant 4.3 (P03372 whole entry E203W/Q214V/G215R/H216P/N217T/G400V): as the sequence (P03372 whole entry E203W/Q214A/H216G/G400V) above, with A214V, G215R, G216P, N217T counted along it
The mark [6] stands for this setting: ATL8/PAL-LUC, 2.5 ng expression plasmid, 10 nM OHT.

Here are results for two compounds from patent publication US7153685B2 (The Board of Trustees of the University of Illinois, priority 2002, dated 2006).

T2 sequence (P03372 with tags, fused parts or gaps E203W/Q214A/H216G/G400V): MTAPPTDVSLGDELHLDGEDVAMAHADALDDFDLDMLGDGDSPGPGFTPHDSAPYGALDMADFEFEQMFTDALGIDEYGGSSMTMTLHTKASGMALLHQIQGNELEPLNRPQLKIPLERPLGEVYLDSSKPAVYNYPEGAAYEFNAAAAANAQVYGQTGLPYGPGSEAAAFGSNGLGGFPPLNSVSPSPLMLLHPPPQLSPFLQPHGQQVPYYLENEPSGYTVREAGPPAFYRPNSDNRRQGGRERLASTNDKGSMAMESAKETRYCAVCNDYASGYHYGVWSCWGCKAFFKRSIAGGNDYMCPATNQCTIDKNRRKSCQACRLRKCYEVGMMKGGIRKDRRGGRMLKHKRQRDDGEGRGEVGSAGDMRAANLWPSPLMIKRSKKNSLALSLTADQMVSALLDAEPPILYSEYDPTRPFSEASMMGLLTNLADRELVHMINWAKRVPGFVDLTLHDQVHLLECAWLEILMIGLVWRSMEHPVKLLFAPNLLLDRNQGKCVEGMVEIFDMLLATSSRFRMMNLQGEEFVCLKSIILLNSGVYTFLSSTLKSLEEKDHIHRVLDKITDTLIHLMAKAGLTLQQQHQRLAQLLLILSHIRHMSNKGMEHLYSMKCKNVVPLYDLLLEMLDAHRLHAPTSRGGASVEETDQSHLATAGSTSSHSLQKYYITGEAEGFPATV
Chain of ER 4.3 (P03372 whole entry E203W/Q214V/G215R/H216P/N217T/G400V): as the sequence (P03372 whole entry E203W/Q214A/H216G/G400V) above, with A214V, G215R, G216P, N217T counted along it
Chain of ER 2 (P03372 whole entry E203W/Q214A/G215R/G400V): as the sequence (P03372 whole entry E203W/Q214A/H216G/G400V) above, with G215R, G216H counted along it
Method for ER 2: (§3) HepG2 human hepatoma cells were maintained in a humidified 5% CO2 incubator at 37° C. in Dulbecco's Modified Eagle's Medium (DMEM; Sigma; St. Louis, Mo.) supplemented with 10 % charcoal-dextran-stripped fetal bovine serum (CD-FBS; Atlanta Biologicals, Inc; Atlanta, Ga.), 50,000 U/l of penicillin, and 50 mg/liter streptomycin (Life Technologies, Inc.). MCF-7 cells were routinely maintained in DMEM/Nutrient Mixture F-12 (DMEM/F12) supplemented with 10% heat-inactived FBS, 50,000 U/l of penicillin, and 50 mg/l streptomycin. CHO-S cells were maintained in DMEM/F12 supplemented with 10% heat-inactivated FBS (CD-FBS when ERs were being expressed) or 10% CD-new born calf serum (CD-NBCS, when reporter activity by different ligands were measured), 29.2 mg/l L-glutamine (Sigma), and 50,000 U/l of penicillin and 50 mg/l streptomycin.
Transient transfections in HepG2 cells was accomplished using calcium phosphate co-precipitation (Ausubel et al., 1987). Briefly, cells were plated in 12-well microplates at a density of 1×10^5 cells/well. The next day, the medium was replaced, and 2–6 hours later, precipitated calcium phosphate:DNA co-crystals were added. […] Activity was determined using the dual luciferase assay protocol according to the manufacturer's directions (Promega) on a Monolight 2010 luminometer (Analytical Luminescence, San Diego, Calif.)
Method for ER 4.3: as §3
Transient transfections in HepG2 cells was accomplished using calcium phosphate co-precipitation (Ausubel et al., 1987). Briefly, cells were plated in 12-well microplates at a density of 1×10^5 cells/well. The next day, the medium was replaced, and 2–6 hours later, precipitated calcium phosphate:DNA co-crystals were added. […] Activity was determined using the dual luciferase assay protocol according to the manufacturer's directions (Promega) on a Monolight 2010 luminometer (Analytical Luminescence, San Diego, Calif.) […]
Method for ER mutant 4.3: HepG2 human hepatoma cells were maintained in a humidified 5% CO2 incubator at 37° C. in Dulbecco's Modified Eagle's Medium (DMEM; Sigma; St. Louis, Mo.) supplemented with 10 % charcoal-dextran-stripped fetal bovine serum (CD-FBS; Atlanta Biologicals, Inc; Atlanta, Ga.), 50,000 U/l of penicillin, and 50 mg/liter streptomycin (Life Technologies, Inc.).
Transient transfections in HepG2 cells was accomplished using calcium phosphate co-precipitation (Ausubel et al., 1987). Briefly, cells were plated in 12-well microplates at a density of 1×10^5 cells/well. The next day, the medium was replaced, and 2–6 hours later, precipitated calcium phosphate:DNA co-crystals were added. After 12–16 hours, the cells were shocked for 3 minutes with 20% glycerol in Tris-buffered saline, pH 7.4. Fresh medium and (if any) hormones were added. For MCF-7 and 231 cells, transient transfection was carried out using the Tfx™-20 reagent (Promega; Madison, Wis.) according to the manufacturer's direction with minor changes. Briefly, 1×10^5 cells were plated in each well of 12-well microplates one day before transfection. A 1:3 ratio of DNA to lipid was used. […] Activity was determined using the dual luciferase assay protocol according to the manufacturer's directions (Promega) on a Monolight 2010 luminometer (Analytical Luminescence, San Diego, Calif.) […]
Method for wild type hERα: as §3
Transient transfections in HepG2 cells was accomplished using calcium phosphate co-precipitation (Ausubel et al., 1987). Briefly, cells were plated in 12-well microplates at a density of 1×10^5 cells/well. The next day, the medium was replaced, and 2–6 hours later, precipitated calcium phosphate:DNA co-crystals were added. After 12–16 hours, the cells were shocked for 3 minutes with 20% glycerol in Tris-buffered saline, pH 7.4. Fresh medium and (if any) hormones were added. For MCF-7 and 231 cells, transient transfection was carried out using the Tfx™-20 reagent (Promega; Madison, Wis.) according to the manufacturer's direction with minor changes. Briefly, 1×10^5 cells were plated in each well of 12-well microplates one day before transfection. A 1:3 ratio of DNA to lipid was used. The DMEM/F12 medium without serum was used as carrier for the DNA-lipid mixture. After 1 hour incubation with the DNA-lipid-DMEM/F12 at 37° C., the cells were transferred to fresh DMEM/F12 supplemented with 10% CD-FBS, 50,000 U/I of penicillin, 50 mg/l streptomycin and hormones. Transfection on CHO—S cells was described as above for the preparation of ERs extraction except the medium contained 10% CD-NBCS. The cells subjected to either transfection method were harvested 48 hours post-transfection. Reporter assays were performed by lysing the cells in situ with 250 μl of passive lysis buffer (Promega). Activity was determined using the dual luciferase assay protocol according to the manufacturer's directions (Promega) on a Monolight 2010 luminometer (Analytical Luminescence, San Diego, Calif.)
Transient transfections of HepG2 cells were carried out and luciferase activity determined.

In the case of `O=C(c1ccc(OCCN2CCCCC2)cc1)c1c(-c2ccc(O)cc2)sc2cc(O)ccc12` [Raloxifene], the “transcription activation when bound to mutant and chimeric estrogen receptors” value in experiment [1] is “fail to activate transcription”.

For 4-hydroxytamoxifen [OHT], the “agonism on ATL8/cERE-LUC, OHT compared with moxestrol” value at wild type hERα (10 nM ligand) is listed as “weaker agonist than moxestrol”. For the same compound, the “transactivation of ATL8/PAL-LUC, OHT compared with MOX” value on wild type hERα (10 nM ligand) was “higher with OHT than with MOX”. Besides, the “transactivation level on two copies of pS2 PAL” value at wild type hERα (ATL2/PAL-LUC, 10 nM ligand) is “undetectable”. Further, the “agonist activity when bound to the cERE” value at wild type hERα (ATL2/cERE-LUC, 10 nM OHT) is “weak agonist activity”. The “induction of luciferase activity from ATL8/PAL” value at wild type hERα (ATL8/PAL-LUC, 5 ng expression plasmid, 10 nM OHT) came out at 52 fold. In addition, the “induction upon addition of OHT” value on N-79 [2] worked out at 28 fold. The “transactivation by OHT compared with MOX” value on ER 2 was “equal to that seen with MOX”; at ER 4.3 (ATL2/PAL-LUC, 10 nM ligand) it was “equal to that seen with MOX”; at ER3M (ATL2/PAL-LUC, 10 nM ligand), “exceeded that seen with MOX”. Moreover, the entries for the “increase in luciferase activity upon addition of OHT” value at N-79 [3] and at N-79 [5] were 813 fold and 1027 fold, respectively. The “increase in reporter gene expression by OHT” value on ER 4.3 (setting [6]) is on record as 172 fold; on ER3M (setting [6]), 117 fold. In experiment [4] (ATL2/PAL-LUC, 10 nM ligand, ER mutants), the “agonist character of OHT when pS2 PAL supplied the ERE” value is recorded as “full agonist”. Moreover, the “transactivation in response to OHT, percent of that seen with MOX” value in experiment [4] (ATL2/pS2 ERE-LUC, 10 nM ligand) is “about 30%”. For the same compound, the “OHT transactivation with four copies of pS2 PAL compared with MOX” value in [4] (ATL4/PAL-LUC, 10 nM ligand) is reported as “same level of transactivation as MOX”. In experiment [4] (ATL4/cERE-LUC, wild type hERα and ERs 3M and 4.3, 10 nM ligand), the “OHT activity, percent of that seen with MOX” value is on record as 20–25%. Besides, the “OHT-mediated activation of transcription on different versions of pS2 PAL reporters” value in [4] (summary, pS2 PAL reporters and the ER mutants) is reported as 70–1000 fold. Also, on ER3M (ATL8/PAL-LUC, tamoxifen compared with OHT), the “maximal level of transactivation” value is listed as “similar”. The “transactivation by OHT, percent of that seen with E2” value at ER mutant 4.3 (ATL4/PAL-LUC) is recorded as 45%. Further, the “OHT-mediated transactivation, percent of that observed with estradiol (E2)” value at ER mutant 4.3 (ATL4/cERE-LUC) came out at 13%.
